From patent US11466044B2 (WAYNE STATE UNIVERSITY, priority 2017, dated 2022)
Values after ≈ are worked out from the molar mass of the structure shown. Where a name gives a salt, the structure may show the parent alone. Read-outs that look alike come from different tables or passages of the source.

Legend:
[1] = system: Enterobacter cloacae AG290; experiment: MIC by broth microdilution, Enterobacter cloacae; type: cell-based; settings: strain AG290 Enterobacter cloacae
[2] = system: wild type bacterial ribosomes; experiment: in-vitro translation assay, bacterial ribosomes; type: biochemical; settings: bacterial ribosome; Table 3 (Example 1); read-out: IC50 Bac
Description: (§1) The antiribosomal activity of these compounds was investigated with cell-free translation assays using both wild type bacterial ribosomes and hybrid ribosomes carrying eukaryotic decoding A sites enabling the prediction of selectivity.

M. smegmatis SZ380 = experiment: MIC by broth microdilution, M. smegmatis
[3] = system: Acinetobacter baumannii pittii AG225; experiment: MIC by broth microdilution, Acinetobacter baumannii; type: cell-based; settings: strain AG225 Acinetobacter baumannii pittii
P aeruginosa = experiment: MIC by broth microdilution, P aeruginosa isolates; type: cell-based, Pseudomonas aeruginosa; settings: for MIC50: Pseudomonas aeruginosa
N. gonorrhoeae = experiment: Disk diffusion, N. gonorrhoeae; type: cell-based
MRSA = experiment: MIC by broth microdilution, MRSA isolates; type: cell-based; settings: for MIC50: Staphylococcus aureus, MRSA
[4] = system: E coli carrying specific resistance determinants; experiment: MIC by broth microdilution, E coli carrying specific resistance determinants; type: cell-based; settings: for MIC: Escherichia coli
[5] = system: mitochondrial ribosome (human chimeric); type: biochemical; settings: mitochondrial; Table 3 (Example 1); read-out: IC50 Mit
Description: as §1

[6] = system: cytosolic ribosome (human chimeric); type: biochemical; settings: cytosolic; Table 3 (Example 1); read-out: IC50 Cyt
Description: as §1

E coli wild type = experiment: MIC by broth microdilution, wild type E coli; type: cell-based; settings: for MIC / MIC50: Escherichia coli; for MIC50: Table 1 (Example 1)
[7] = system: Klebsiella pneumonia AG215; experiment: MIC by broth microdilution, Klebsiella pneumonia; type: cell-based; settings: strain AG215 Klebsiella pneumonia

Structure (SMILES): NC[C@@H]1O[C@H](O[C@@H]2C(O)[C@H](O[C@@H]3C(O)[C@H](N)CC(N)[C@H]3O[C@H]3OC(CO)[C@@H](O)[C@H](O)C3N)O[C@@H]2CNC=O)C(N)C(O)[C@@H]1O (stereo partly drawn) [Compound 137, 5″-Deoxy-5″-formamido-paromomycin acetate salt]
- MIC ([1]; read-out: MIC AG290 E. cloacae): 1 to 2 µg/mL
- IC50 [2]: 0.04 µM
- MIC (M. smegmatis SZ380; Mycolicibacterium smegmatis, SZ380, read-out: MIC SZ380 M. smegmatis, strain SZ380 Mycobacterium smegmatis): 1 µg/mL
- MIC [3]: 2 µg/mL
- MIC50 (P aeruginosa; read-out: MIC50 P aeruginosa AG31): 128 µg/mL
- MIC50 (P aeruginosa; read-out: MIC50 P aeruginosa AG32): 128 µg/mL
- MIC50 (P aeruginosa; read-out: MIC50 P aeruginosa AG33): > 128 µg/mL
- MIC50 (P aeruginosa; read-out: MIC50 P aeruginosa AG86): > 128 µg/mL
- MIC (P aeruginosa; strain AG220 Pseudomonas aeruginosa ATCC27853, read-out: MIC AG220 P. aerugin): > 64 µg/mL
- zone of inhibition at 25 nmol/disc (N. gonorrhoeae; Neisseria gonorrhoeae): 11 mm
- MIC50 (MRSA; read-out: MIC50 MRSA AG39): > 128 µg/mL
- MIC50 (MRSA; read-out: MIC50 MRSA AG42): > 128 µg/mL
- MIC50 (MRSA; strain AG38, Table 1 (Example 1), read-out: MIC50 MRSA AG38): 4 µg/mL
- MIC50 (MRSA; strain AG44, Table 1 (Example 1), read-out: MIC50 MRSA AG44): 2 to 4 µg/mL
- MIC ([4]; read-out: MIC AG037 E. coli APH(3′)-III): 128 µg/mL
- MIC ([4]; read-out: MIC AG163 E. coli APH(3′)-I): 64 µg/mL
- MIC ([4]; read-out: MIC AG166 E. coli APH(3′)-II): > 128 µg/mL
- MIC ([4]; read-out: MIC APH(3)-VI): > 64 µg/mL
- MIC ([4]; read-out: MIC APH(3′)-I): > 64 µg/mL
- MIC ([4]; read-out: MIC APH(3′)-II): > 64 µg/mL
- MIC ([4]; read-out: MIC APH(3′)-III): > 64 µg/mL
- MIC ([4]; read-out: MIC E coli AG007 ANT(3″) AAC(3)-I): 4 µg/mL
- MIC ([4]; read-out: MIC E coli AG103 ArmA): 8 µg/mL
- MIC ([4]; read-out: MIC E coli AG163/164 APH(3′)-Ia): 32 to 64 µg/mL
- MIC ([4]; read-out: MIC E coli AG166 APH(3′)-IIa): > 128 µg/mL
- MIC ([4]; read-out: MIC pH421 E. coli APH(3′)-I): > 64 µg/mL
- MIC ([4]; read-out: MIC pH422 E. coli APH(3′)-II): > 64 µg/mL
- MIC ([4]; read-out: MIC pH423 E. coli APH(3′)-VI): > 64 µg/mL
- IC50 [5]: 144 µM
- IC50 [6]: 90 µM
- MIC (E coli wild type; AG006 wt, Table 2 (Example 1), read-out: MIC E coli AG006 wt): 1 µg/mL
- MIC (E coli wild type; AG102 wt, Table 2 (Example 1), read-out: MIC E coli AG102 wt): 1 µg/mL
- MIC (E coli wild type; AG160 wt, Table 2 (Example 1), read-out: MIC E coli AG160 wt): 2 µg/mL
- MIC (E coli wild type; ATCC25922, strain AG212 E. coli (ATCC25922), read-out: MIC AG212 E. coli): 2 µg/mL
- MIC (E coli wild type; WT, Table 3 (Example 1), read-out: MIC WT): 1 to 2 µg/mL
- MIC (E coli wild type; clinical isolate AG160 WT, Table 2 (Example 4), read-out: MIC AG160 E. coli WT): 2 µg/mL
- MIC (E coli wild type; engineered strain pH430 WT, Table 2 (Example 4), read-out: MIC pH430 E. coli WT): 1 to 2 µg/mL
- MIC50 (E coli wild type; strain AG01, read-out: MIC50 E coli AG01): 4 µg/mL
- MIC50 (E coli wild type; strain AG03, read-out: MIC50 E coli AG03): 4 µg/mL
- MIC50 (E coli wild type; strain AG55, read-out: MIC50 E coli AG55): 4 µg/mL
- MIC ([7]; Klebsiella pneumoniae, read-out: MIC AG215 K. pneumon): 1 µg/mL

Structure (SMILES): CC(O)C1OC(OC2C(N)CC(N)C(O)C2OC2OC(CO)C(OC3OC(CN)C(O)C(O)C3N)C2O)C(N)C(O)C1O (stereo not drawn) [Compound 156]
- MIC AG290 E. cloacae [1]: 1 µg/mL (≈ 1.59 µM)
- MIC SZ380 M. smegmatis (M. smegmatis SZ380; strain SZ380 Mycobacterium smegmatis): 0.5 µg/mL (≈ 0.794 µM)
- MIC AG225 A. baumannii [3]: 2 µg/mL (≈ 3.18 µM)
- MIC AG220 P. aerugin (P aeruginosa; strain AG220 Pseudomonas aeruginosa ATCC27853): >32 µg/mL
- Disk diffusion 25 nmol N. gonorrhoeae (N. gonorrhoeae; 25 nmol): 10 mm
- MIC50 MRSA AG38 (MRSA; strain AG38, Table 1 (Example 2)): 4 to 8 µg/mL
- MIC50 MRSA AG39 (MRSA; strain AG39, Table 1 (Example 2)): >128 µg/mL
- MIC50 MRSA AG42 (MRSA; strain AG42, Table 1 (Example 2)): >128 µg/mL
- MIC50 MRSA AG44 (MRSA; strain AG44, Table 1 (Example 2)): 2 to 4 µg/mL
- MIC50 E coli AG036 ANT(4′,4″) ([4]; AG036 ANT(4′,4″), Table 2B (Example 2)): 32 to 64 µg/mL
- MIC50 E coli AG037 APH(3′)-III ([4]; AG037 APH(3′)-III, Table 2B (Example 2)): >32 µg/mL
- MIC50 E coli AG103 armA ([4]; AG103 armA, Table 2B (Example 2)): 1 µg/mL (≈ 1.59 µM)
- MIC50 E coli pH414 AAC(6′)-I ([4]; pH414 AAC(6′)-I, Table 2B (Example 2)): 1 μg/ml
- MIC50 E coli pH415 AAC(6′)-II ([4]; pH415 AAC(6′)-II, Table 2B (Example 2)): 1 μg/ml
- MIC50 E coli pH421 APH(3′)-I ([4]; pH421 APH(3′)-I, Table 2B (Example 2)): >32 μg/ml
- MIC50 E coli pH422 APH(3′)-II ([4]; pH422 APH(3′)-II, Table 2B (Example 2)): >32 μg/ml
- MIC50 E coli pH423 APH(3)-VI ([4]; pH423 APH(3)-VI, Table 2B (Example 2)): >32 μg/ml
- MIC50 E coli pH432 ANT(4′) ([4]; pH432 ANT(4′), Table 2B (Example 2)): 1 μg/ml
- MIC50 E coli BM13 (AG06) wt (E coli wild type; BM13 (AG06) wt, Table 2A (Example 2)): 1 µg/mL (≈ 1.59 µM)
- MIC50 E coli pH430 WT (E coli wild type; pH430 WT, Table 2B (Example 2)): 1 μg/ml
- MIC50 E coli AG01 (E coli wild type; strain AG01, Table 1 (Example 2)): 4 µg/mL (≈ 6.35 µM)
- MIC50 E coli AG03 (E coli wild type; strain AG03, Table 1 (Example 2)): 4 to 8 µg/mL
- MIC50 E coli AG55 (E coli wild type; strain AG55, Table 1 (Example 2)): 4 µg/mL (≈ 6.35 µM)
- MIC AG212 E. coli (E coli wild type; strain AG212 E. coli (ATCC25922)): 2 µg/mL (≈ 3.18 µM)
- MIC AG215 K. pneumon [7]: 1 µg/mL (≈ 1.59 µM)
